Test systems include A498; CCRF-CEM; HCT-116; HCT-15; Hs-578T; MCF7; MOLT-4; Malme-3M; OVCAR-5; OVCAR-8; PC-3; RXF 393; SF-268; SK-MEL-2; SK-OV-3; T47D; TK-10; UO-31; HOP-92; NCI-H460.
Holding throughout (assay): NCI tumour cell line growth inhibition, 48 h

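All cell lines were grown in 96-well plates and treated with compound for 48 hours. The concentration for 50% growth inhibition is given as GI50.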 Active and inactive are the calls of the source. Rule as the data show it: active = GI50 up to about 1.1 µM and inactive = higher.

`O=C1c2ccccc2C(=O)N1C1(C(=O)NC2(C(=O)O)CCCC2)CCCC1`: the GI50 is > 100 µM (inactive) in the assay on A498; > 100 µM (inactive) in the assay on CCRF-CEM; > 100 µM (inactive) in the assay on HCT-116; more than 100 µM in the assay on HCT-15; > 100 µM (inactive) with Hs-578T; > 100 µM (inactive) in the assay with MCF7. In addition, the GI50 with MOLT-4, in the assay with Malme-3M, in the assay with OVCAR-5, in the assay on OVCAR-8, with PC-3 and in the assay on RXF 393 was > 100 µM (inactive) throughout. Further, the GI50 in the assay on SF-268, in the assay with SK-MEL-2, with SK-OV-3, in the assay with T47D, in the assay on TK-10 and with UO-31 was > 100 µM (inactive) in each case.

Turning to `O=C(O)/C(=C\c1ccc(O)cc1)c1cccc2ccccc12`, the GI50 is > 100 µM (inactive) in the assay with A498; > 100 µM (inactive) in the assay with HCT-116; more than 100 µM with HCT-15; > 100 µM (inactive) in the assay on HOP-92; > 100 µM (inactive) in the assay on Hs-578T; > 100 µM (inactive) in the assay on MOLT-4. Moreover, the GI50 in the assay with Malme-3M, with NCI-H460, in the assay on OVCAR-5, in the assay with OVCAR-8, with PC-3 and in the assay with RXF 393 was > 100 µM (inactive) each time. For the same compound, the GI50 in the assay with SF-268, in the assay with SK-MEL-2, with T47D, with TK-10 and in the assay on UO-31 was > 100 µM (inactive) each time.

For the compound `Clc1cccc(Cl)c1C1SCc2nc3ncccc3n21` (configuration not stated), the GI50 is > 100 µM (inactive) in the assay on A498; 92.3 µM (inactive) in the assay on CCRF-CEM; 94.6 µM (inactive) with HCT-116; more than 100 µM in the assay with HCT-15; > 100 µM (inactive) in the assay on Hs-578T; 61.8 µM (inactive) with MOLT-4. Moreover, the GI50 in the assay with Malme-3M is 55.8 µM (inactive); in the assay on NCI-H460 it was > 100 µM (inactive); in the assay on OVCAR-5 it was > 100 µM (inactive); in the assay on OVCAR-8, > 100 µM (inactive); with PC-3, > 100 µM (inactive); with RXF 393, > 100 µM (inactive). Besides, the GI50 in the assay with SF-268, with SK-MEL-2, in the assay with SK-OV-3, with T47D, in the assay on TK-10 and in the assay on UO-31 was > 100 µM (inactive) throughout.

For `O=C(O)c1nc2ccc(C(F)(F)F)cc2nc1Nc1ccc(F)cc1`, the GI50 in the assay on A498 is 16.9 µM (inactive); in the assay on HCT-116, 15.1 µM (inactive); with HCT-15, 20.7 µM; in the assay on Hs-578T it was 36.4 µM (inactive); in the assay on MCF7, 23 µM (inactive); in the assay with MOLT-4 it was 9.57 µM (inactive). Moreover, the GI50 was 15.4 µM (inactive) with Malme-3M; 16.1 µM (inactive) in the assay on NCI-H460; 28.4 µM (inactive) with OVCAR-5; 17.2 µM (inactive) in the assay on OVCAR-8; 15 µM (inactive) in the assay with PC-3; 14.4 µM (inactive) in the assay on RXF 393. Besides, the GI50 in the assay with SF-268 is 15.5 µM (inactive); in the assay on SK-MEL-2, 15.3 µM (inactive); with TK-10, 36.6 µM (inactive); in the assay with UO-31, 12 µM (inactive).

For the compound `O=S(=O)(O)c1cccc2ccc(O)c(/N=N\c3ccc(S(=O)(=O)c4ccc(/N=N/c5c(O)ccc6cccc(S(=O)(=O)O)c56)cc4)cc3)c12`, the GI50 was > 100 µM (inactive) in the assay on CCRF-CEM; > 100 µM (inactive) in the assay with HCT-116; more than 100 µM with HCT-15; > 100 µM (inactive) in the assay with HOP-92; > 100 µM (inactive) with Hs-578T; > 100 µM (inactive) with MOLT-4. Moreover, the GI50 with Malme-3M, in the assay on OVCAR-5, in the assay on OVCAR-8, in the assay with PC-3, in the assay with RXF 393 and in the assay on SF-268 was > 100 µM (inactive) each time. Moreover, the GI50 with SK-MEL-2 was > 100 µM (inactive); in the assay with SK-OV-3, > 100 µM (inactive); in the assay with T47D, > 100 µM (inactive); in the assay with TK-10, > 100 µM (inactive); in the assay on UO-31, 63.4 µM (inactive).

Consider `CC(C)c1cccc(C(=O)NCCN(C)C)c1[N+](=O)[O-]`, for which the GI50 is 65.9 µM (inactive) in the assay on A498; > 100 µM (inactive) in the assay with CCRF-CEM; > 100 µM (inactive) in the assay on HCT-116; more than 100 µM in the assay on HCT-15; > 100 µM (inactive) with Hs-578T; > 100 µM (inactive) with MCF7. Besides, the GI50 in the assay on MOLT-4, in the assay on Malme-3M, with NCI-H460, with OVCAR-5, in the assay on OVCAR-8 and in the assay with PC-3 was > 100 µM (inactive) in each case. In addition, the GI50 in the assay with SF-268, in the assay with SK-MEL-2, with SK-OV-3, in the assay on T47D, with TK-10 and with UO-31 was > 100 µM (inactive) in each case.

Turning to `O=c1cc(CC(O)(C(F)(F)Cl)C(F)(F)Cl)[nH]n1-c1ccccc1`, the GI50 in the assay on A498 is > 100 µM (inactive); in the assay with CCRF-CEM it was > 100 µM (inactive); in the assay on HCT-116, > 100 µM (inactive); in the assay on HCT-15, more than 100 µM; in the assay with HOP-92, 20.7 µM (inactive); with Hs-578T, 15 µM (inactive). The GI50 in the assay on MCF7, in the assay on MOLT-4, in the assay with Malme-3M, in the assay on NCI-H460, with OVCAR-5 and in the assay on OVCAR-8 was > 100 µM (inactive) throughout. The GI50 was > 100 µM (inactive) in the assay with RXF 393; > 100 µM (inactive) in the assay on SF-268; > 100 µM (inactive) in the assay on SK-OV-3; 52.6 µM (inactive) with T47D; > 100 µM (inactive) in the assay with TK-10; 78.9 µM (inactive) with UO-31.

On to `COc1cc(/C=C/C(=O)CC(=O)/C=C/c2ccc(OC(=O)CCCCC3CCSS3)c(OC)c2)ccc1OC(=O)CCCCC1CCSS1` (configuration not stated), for which the GI50 with CCRF-CEM was > 100 µM (inactive); in the assay on HCT-116 it was > 100 µM (inactive); in the assay on HCT-15 it was more than 100 µM; in the assay on Hs-578T it was > 100 µM (inactive); in the assay on MCF7 it was > 100 µM (inactive); in the assay on MOLT-4, > 100 µM (inactive). Moreover, the GI50 in the assay on Malme-3M, in the assay with NCI-H460, in the assay with OVCAR-5, in the assay on OVCAR-8, in the assay with PC-3 and in the assay with RXF 393 was > 100 µM (inactive) in each case. For the same compound, the GI50 in the assay with SF-268, with SK-MEL-2, in the assay with SK-OV-3, in the assay on TK-10 and in the assay with UO-31 was > 100 µM (inactive) in each case.

For `O=C1/C(=C/c2cccc(Cl)c2)CCCc2ccccc21`, the GI50 is 10.2 µM (inactive) in the assay with CCRF-CEM; 12.9 µM (inactive) with HCT-116; 17.2 µM in the assay on HCT-15; 21.1 µM (inactive) in the assay with HOP-92; 15.5 µM (inactive) with Hs-578T; 6.03 µM (inactive) in the assay on MCF7. For the same compound, the GI50 with MOLT-4 was 15.2 µM (inactive); in the assay on Malme-3M, 19.1 µM (inactive); in the assay on NCI-H460, 15.7 µM (inactive); in the assay with OVCAR-5, 16.5 µM (inactive); in the assay on OVCAR-8 it was 18.3 µM (inactive); with PC-3, 18.3 µM (inactive). Further, the GI50 in the assay with SF-268 is 16.8 µM (inactive); in the assay with SK-MEL-2, 17.4 µM (inactive); in the assay with SK-OV-3, 45.8 µM (inactive); in the assay with TK-10, 18 µM (inactive); with UO-31, 16.1 µM (inactive).

Take `COC(=O)c1ccc2[nH]c3c(c2c1)CC(=O)Nc1ccccc1-3`: the GI50 with A498 is > 100 µM (inactive); in the assay on HCT-116 it was > 100 µM (inactive); with HCT-15 it was more than 100 µM; in the assay on Hs-578T, > 100 µM (inactive); in the assay with MCF7 it was > 100 µM (inactive); in the assay on MOLT-4, 1.31 µM (inactive). The GI50 was > 100 µM (inactive) with Malme-3M; > 100 µM (inactive) in the assay on NCI-H460; 60.3 µM (inactive) in the assay on OVCAR-5; 5.9 µM (inactive) with OVCAR-8; > 100 µM (inactive) with PC-3; 9.18 µM (inactive) in the assay on SF-268. Also, the GI50 was > 100 µM (inactive) with SK-MEL-2; 41.7 µM (inactive) with SK-OV-3; > 100 µM (inactive) in the assay with T47D; 83.9 µM (inactive) with TK-10; 0.0278 µM (active) in the assay on UO-31.

In the case of `c1ccc(-c2cccc(-c3ccccn3)n2)nc1` [TERPYRIDINE], the GI50 with A498 is 1.09 µM (active); with CCRF-CEM, 0.249 µM (active); with HCT-116, 0.344 µM (active); in the assay with HCT-15, 0.407 µM; with Hs-578T it was 7.06 µM (inactive); in the assay with MCF7 it was 0.394 µM (active). Further, the GI50 in the assay with MOLT-4 is 0.308 µM (active); in the assay with Malme-3M, 0.181 µM (active); in the assay on NCI-H460, 0.382 µM (active); in the assay on OVCAR-5, 0.755 µM (active); in the assay on OVCAR-8 it was 0.453 µM (active); in the assay on PC-3, 0.409 µM (active). Besides, the GI50 was 0.424 µM (active) in the assay on RXF 393; 0.495 µM (active) in the assay with SF-268; 1.17 µM (inactive) in the assay with SK-MEL-2; 0.783 µM (active) with SK-OV-3; 1.1 µM (active) in the assay on T47D; 0.847 µM (active) in the assay with TK-10. Besides, the GI50 in the assay on UO-31 is 0.197 µM (active).

The record behind these values is ChEMBL document CHEMBL1201862, “PubChem BioAssay data set” (2004).
